Patent US5432260A, “High affinity mannose receptor ligands” (Washington University, priority 1991, dated 1995)
pIC50: −log10 of the molar value.

Biological target: T1, purified mannose receptor (Homo sapiens, UniProt P22897)
T1 construct: purified mannose receptor (Lennartz, M. R. et al., J Biol Chem (1987) 262:9942-9944 (supra)) is added; from tissue
T1 sequence (P22897 19-1456): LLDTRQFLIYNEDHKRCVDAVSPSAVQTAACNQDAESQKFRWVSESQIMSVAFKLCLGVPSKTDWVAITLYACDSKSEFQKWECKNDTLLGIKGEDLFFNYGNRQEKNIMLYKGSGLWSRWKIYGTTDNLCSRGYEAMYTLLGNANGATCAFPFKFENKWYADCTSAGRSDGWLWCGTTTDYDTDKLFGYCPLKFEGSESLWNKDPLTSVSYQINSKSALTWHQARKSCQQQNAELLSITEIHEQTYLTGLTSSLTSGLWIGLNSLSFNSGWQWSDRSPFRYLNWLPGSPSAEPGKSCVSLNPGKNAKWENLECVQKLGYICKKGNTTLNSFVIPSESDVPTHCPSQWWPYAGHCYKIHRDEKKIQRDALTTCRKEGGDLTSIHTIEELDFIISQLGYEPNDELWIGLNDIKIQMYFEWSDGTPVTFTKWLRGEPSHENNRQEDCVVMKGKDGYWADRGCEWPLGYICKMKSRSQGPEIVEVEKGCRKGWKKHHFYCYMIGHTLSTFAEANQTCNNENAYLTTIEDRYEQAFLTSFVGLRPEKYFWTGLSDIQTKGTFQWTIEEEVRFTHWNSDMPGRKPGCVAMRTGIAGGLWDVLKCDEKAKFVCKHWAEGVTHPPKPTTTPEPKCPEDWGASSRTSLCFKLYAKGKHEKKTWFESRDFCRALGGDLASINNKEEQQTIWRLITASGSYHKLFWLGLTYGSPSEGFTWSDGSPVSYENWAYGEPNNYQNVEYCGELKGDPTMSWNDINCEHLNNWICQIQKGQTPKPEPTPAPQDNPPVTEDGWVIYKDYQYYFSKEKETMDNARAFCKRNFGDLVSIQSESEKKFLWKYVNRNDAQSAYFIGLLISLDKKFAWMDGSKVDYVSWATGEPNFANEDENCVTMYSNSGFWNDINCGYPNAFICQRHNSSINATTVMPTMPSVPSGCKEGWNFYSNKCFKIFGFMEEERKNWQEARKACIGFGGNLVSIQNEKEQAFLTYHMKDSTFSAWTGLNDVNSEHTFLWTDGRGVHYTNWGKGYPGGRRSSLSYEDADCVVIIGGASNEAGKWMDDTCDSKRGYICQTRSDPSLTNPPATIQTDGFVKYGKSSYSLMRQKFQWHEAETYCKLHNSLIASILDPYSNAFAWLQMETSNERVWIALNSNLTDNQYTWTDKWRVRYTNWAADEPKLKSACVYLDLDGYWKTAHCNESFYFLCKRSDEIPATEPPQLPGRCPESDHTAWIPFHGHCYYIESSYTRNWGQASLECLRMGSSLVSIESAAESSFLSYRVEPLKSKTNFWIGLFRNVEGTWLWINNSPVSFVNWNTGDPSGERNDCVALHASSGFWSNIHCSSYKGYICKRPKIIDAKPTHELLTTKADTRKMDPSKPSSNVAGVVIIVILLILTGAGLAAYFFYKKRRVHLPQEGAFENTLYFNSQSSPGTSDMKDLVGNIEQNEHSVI
Test: Competition of 125I-mannose-BSA binding to isolated mannose receptor on beads
Conditions: for pIC50: 125I-mannose-BSA 2 nM, 37° C., 15 minutes, read-out: IC50 (concentration effecting 50% inhibition of 125I-mannose-BSA binding to mannose receptor)
Method: The assay measures the ability of the test compound to inhibit the binding of ^125 I-mannose-BSA, prepared as described, to isolated mannose receptor. To prepare solid supported receptor protein A-sepharose (IgG-SORB) is incubated with rabbit anti-human mannose receptor antiserum for 20 minutes at room temperature. The beads are then washed by sedimentation 3 times in Tris-buffered saline containing 1% Triton X-100, 1% BSA and 15 mM CaCl2 (assay buffer). The beads are then suspended in an assay buffer and purified mannose receptor (Lennartz, M. R. et al., J Biol Chem (1987) 262:9942-9944 (supra)) is added, followed by incubation for 30 minutes at 37° C. The beads are washed again three times to remove unbound receptor.
In the assay, the receptor-linked beads are resuspended in a total volume of 100 μL assay buffer containing 0.1 μCi ^125 I-mannose-BSA (2 nM) prepared according to (Stahl, P. et al., Cell (1980) (supra)) with and without test compound. Following incubation at 37° C. for 15 minutes, the beads are diluted in ice cold buffer and washed three times in the same assay buffer as the dissociation or receptor/ligand at 4° C. is quite slow. The cpm of ^125 I-mannose-BSA remaining in the […] is determined, and the percent inhibition of test compound at various concentrations calculated. The IC50 is then the concentration which effects a 50% inhibition in binding. Nonspecific binding of ligand to beads is determined by adding excess yeast mannan to parallel assays and accounted for in the calculations.
The ^125 I-mannose-BSA used in the assay binds to receptor beads with a Kd of 2 nM as determined in the foregoing assay using unlabeled mannose-BSA as test compound.
The competition was conducted as set forth above, using as test compounds, mannose, oligosaccharides containing 3, 5, 7, 9 or 13 mannose residues linked α1, 4 (Man9 and Man13, respectively) and two proteins known to contain mannose residues, β-glucuronidase and invertase. ^125 I-mannose-BSA at 2 nM was used in the assay and mannose-BSA was used in a control. Varying concentrations of test compound were used to determine the IC50 for each material.
The compounds synthesized in Example 2 were tested in the assay system described in Example 1 above under the conditions therein set forth. FIGS. 2 and 3 show the results. The IC50 (concentration of test compound which effects 50% inhibition of binding of labeled mannose-BSA under the conditions of the assay) can be read from the figures.

O=C[C@@H](O)[C@@H](O)[C@H](O)[C@H](O)CO [Mannose, mannose]
fold less effective than the mannose oligosaccharides in inhibiting 125I-mannose-BSA binding (relative to Man9/Man13, FIG. 1): at least 1,000 fold

Invertase: protein known to contain mannose residues
pIC50: 7.00 to 8.00
ability to inhibit the binding of 125I-mannosyl-BSA after digestion with pronase (digested with pronase): destroyed

Man9
pIC50: ~4.70
